In PMC5433508 (Chemical Science, 2017):

Tested on: MDA-MB-231 cells
Assay: MTT cell viability assay, MDA-MB-231
Type: cell-based, human
Settings: co-treatment with LYN-1604 for 24 h

CNC(=O)c1ccccc1Oc1nc(Nc2cc(OC)c(OC)c(OC)c2)ncc1Br [SBI-0206965]
effect on LYN-1604-induced cell death: decrease LYN-1604-induced cell death
